Consider 25 molecules from patent US9850225B2, “Compounds useful as immunomodulators” (BRISTOL-MYERS SQUIBB COMPANY, priority 2014, dated 2017).

The test concerns the target PD-1/PD-L1 interaction (PD-1-Ig / PD-L1-His) (Homo sapiens (Human), UniProt Q9NZQ7). Put plainly: PD-1/PD-L1 Homogenous Time-Resolved Fluorescence (HTRF) binding assay. As to conditions: PD-1/PD-L1 HTRF binding assay, read-out: Range or IC50. In short, it runs like this: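 HTRF detection used 1 nM europium-cryptate anti-Ig and 20 nM APC anti-His. Compounds first saw 10 nM PD-L1-His for 15 min, and 20 nM PD-1-Ig was then added for another 15 min. Buffer was dPBS plus 0.1% BSA and 0.05% Tween-20. All concentrations are final.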

Structures are written as SMILES. Like-named read-outs stand apart in the source and are kept apart here.

PD-1/PD-L1 interaction (PD-1-Ig / PD-L1-His), sequence (Q9NZQ7 other isoform, or with tags, fused parts or gaps): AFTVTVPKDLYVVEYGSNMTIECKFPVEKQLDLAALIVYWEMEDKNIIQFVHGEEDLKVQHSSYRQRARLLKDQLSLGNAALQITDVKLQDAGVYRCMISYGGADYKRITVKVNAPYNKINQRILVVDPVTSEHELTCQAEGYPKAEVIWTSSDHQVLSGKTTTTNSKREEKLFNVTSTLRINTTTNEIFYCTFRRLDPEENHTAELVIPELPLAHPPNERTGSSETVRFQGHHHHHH

On to `CC(=O)NCCNCc1cc(C)c(OCc2cccc(-c3ccc4c(c3)OCCO4)c2C#N)cc1OCc1cncc(C#N)c1` [Example 1305, N-(2-(4-(2-cyano-3-(2,3-dihydrobenzo[b][1,4]dioxin-6-yl)benzyloxy)-2-((5-cyanopyridin-3-yl)methoxy)-5-methylbenzylamino)ethyl)acetamide], for which the IC50 reads like this: (numeric value) 0.92 nM; (value given as range class) 0.6 to 10 nM.
For `Cc1cc(CNC[C@@H](O)CC(=O)O)c(OCc2cncc(C#N)c2)cc1OCc1cccc(-c2ccc3c(c2)OCCO3)c1C#N` [Example 1307, (S)-4-(4-(2-cyano-3-(2,3-dihydrobenzo[b][1,4]dioxin-6-yl)benzyloxy)-2-((5-cyanopyridin-3-yl)methoxy)-5-methylbenzylamino)-3-hydroxybutanoic acid], the 50% inhibitory concentration (IC50) (value given as range class) lay in the range of 0.6 to 10 nM.
In the case of `Cc1cc(CN[C@@](C)(CO)C(=O)O)c(OCc2cncc(C#N)c2)cc1OCc1cccc(-c2ccc3c(c2)OCCO3)c1C#N` [Example 1308, (S)-2-(4-(2-cyano-3-(2,3-dihydrobenzo[b][1,4]dioxin-6-yl)benzyloxy)-2-((5-cyanopyridin-3-yl)methoxy)-5-methylbenzylamino)-3-hydroxy-2-methylpropanoic acid], the IC50 (value given as range class) was 0.6 to 10 nM.
Consider `Cc1cc(CN2CCCC[C@H]2C(=O)O)c(OCc2cncc(C#N)c2)cc1OCc1cccc(-c2ccc3c(c2)OCCO3)c1C#N` [Example 1309, (S)-1-(4-(2-cyano-3-(2,3-dihydrobenzo[b][1,4]dioxin-6-yl)benzyloxy)-2-((5-cyanopyridin-3-yl)methoxy)-5-methylbenzyl)piperidine-2-carboxylic acid], for which the IC50 (value given as range class) was in the range of 0.6 to 10 nM.
Still for that read-out and setting: then `Cc1cc(CN[C@H](CO)C(=O)O)c(OCc2cncc(C#N)c2)cc1OCc1cccc(-c2ccc3c(c2)OCCO3)c1C#N` [Example 1310, (R)-2-(4-(2-cyano-3-(2,3-dihydrobenzo[b][1,4]dioxin-6-yl)benzyloxy)-2-((5-cyanopyridin-3-yl)methoxy)-5-methylbenzylamino)-3-hydroxypropanoic acid], with 0.6 to 10 nM; and `Cc1cc(CN[C@](C)(CO)C(=O)O)c(OCc2cncc(C#N)c2)cc1OCc1cccc(-c2ccc3c(c2)OCCO3)c1C#N` [Example 1311, (R)-2-(4-(2-cyano-3-(2,3-dihydrobenzo[b][1,4]dioxin-6-yl)benzyloxy)-2-((5-cyanopyridin-3-yl)methoxy)-5-methylbenzylamino)-3-hydroxy-2-methylpropanoic acid], with 0.6 to 10 nM; and `N#Cc1cccc(COc2cc(OCc3cccc(-c4ccc5c(c4)OCCO5)c3C#N)c(Br)cc2CN[C@@H](CO)C(=O)O)c1` [Example 1312, (S)-2-((5-bromo-4-((2-cyano-3-(2,3-dihydrobenzo[b][1,4]dioxin-6-yl)benzyl)oxy)-2-((3-cyanobenzyl)oxy)benzyl)amino)-3-hydroxypropanoic acid], with 0.6 to 10 nM.
Regarding `N#Cc1cccc(COc2cc(OCc3cccc(-c4ccc5c(c4)OCCO5)c3C#N)c(Br)cc2CN2CCCC[C@H]2C(=O)O)c1` [Example 1313, (S)-1-(5-bromo-4-((2-cyano-3-(2,3-dihydrobenzo[b][1,4]dioxin-6-yl)benzyl)oxy)-2-((3-cyanobenzyl)oxy)benzyl)piperidine-2-carboxylic acid], the IC50 (value given as range class) lay in the range of 0.6 to 10 nM.
For the molecule `N#Cc1cccc(COc2cc(OCc3cccc(-c4ccc5c(c4)OCCO5)c3C#N)c(Br)cc2CNC[C@@H](O)CC(=O)O)c1` [Example 1314, (S)-4-((5-bromo-4-((2-cyano-3-(2,3-dihydrobenzo[b][1,4]dioxin-6-yl)benzyl)oxy)-2-((3-cyanobenzyl)oxy)benzyl)amino)-3-hydroxybutanoic acid], the IC50 (value given as range class) was 0.6 to 10 nM.
Same read-out and setting: then `CC(=O)NCCNCc1cc(Br)c(OCc2cccc(-c3ccc4c(c3)OCCO4)c2C#N)cc1OCc1cccc(C#N)c1` [Example 1315, N-(2-((5-bromo-4-((2-cyano-3-(2,3-dihydrobenzo[b][1,4]dioxin-6-yl)benzyl)oxy)-2-((3-cyanobenzyl)oxy)benzyl)amino)ethyl)acetamide], with 0.6 to 10 nM.
Still for that read-out and setting: as for `Cc1c(COc2cc(OCc3cncc(C#N)c3)c(CNC[C@@H](O)CC(=O)O)cc2Br)cccc1-c1ccc2c(c1)OCCO2` [Example 1316, (S)-4-(5-bromo-2-((5-cyanopyridin-3-yl)methoxy)-4-(3-(2,3-dihydrobenzo[b][1,4]dioxin-6-yl)-2-methylbenzyloxy)benzylamino)-3-hydroxybutanoic acid], the figure is 0.6 to 10 nM; as for `CC(=O)NCCNCc1cc(Br)c(OCc2cccc(-c3ccc4c(c3)OCCO4)c2C)cc1OCc1cncc(C#N)c1` [Example 1317, N-(2-(5-bromo-2-((5-cyanopyridin-3-yl)methoxy)-4-(3-(2,3-dihydrobenzo[b][1,4]dioxin-6-yl)-2-methylbenzyloxy)benzylamino)ethyl)acetamide], 0.6 to 10 nM; as for `Cc1c(COc2cc(OCc3cncc(C#N)c3)c(CN[C@@H](CO)C(=O)O)cc2Br)cccc1-c1ccc2c(c1)OCCO2` [Example 1318, (S)-2-(5-bromo-2-((5-cyanopyridin-3-yl)methoxy)-4-(3-(2,3-dihydrobenzo[b][1,4]dioxin-6-yl)-2-methylbenzyloxy)benzylamino)-3-hydroxypropanoic acid], 0.6 to 10 nM.
The same measure, in the same setting: then `Cc1c(COc2cc(OCc3cncc(C#N)c3)c(CN3CCCC[C@H]3C(=O)O)cc2Br)cccc1-c1ccc2c(c1)OCCO2` [Example 1319, (S)-1-(5-bromo-2-((5-cyanopyridin-3-yl)methoxy)-4-(3-(2,3-dihydrobenzo[b][1,4]dioxin-6-yl)-2-methylbenzyloxy)benzyl)piperidine-2-carboxylic acid], with 0.6 to 10 nM; and `Cc1c(COc2cc(OCc3cncc(C#N)c3)c(CN[C@](C)(CO)C(=O)O)cc2Br)cccc1-c1ccc2c(c1)OCCO2` [Example 1320, (R)-2-(5-bromo-2-((5-cyanopyridin-3-yl)methoxy)-4-(3-(2,3-dihydrobenzo[b][1,4]dioxin-6-yl)-2-methylbenzyloxy)benzylamino)-3-hydroxy-2-methylpropanoic acid], with 0.6 to 10 nM; and `Cc1c(COc2cc(OCc3cncc(C#N)c3)c(CN[C@@](C)(CO)C(=O)O)cc2Br)cccc1-c1ccc2c(c1)OCCO2` [Example 1321, (S)-2-(5-bromo-2-((5-cyanopyridin-3-yl)methoxy)-4-(3-(2,3-dihydrobenzo[b][1,4]dioxin-6-yl)-2-methylbenzyloxy)benzylamino)-3-hydroxy-2-methylpropanoic acid], with 0.6 to 10 nM.
As to `Cc1c(COc2cc(OCc3cncc(C#N)c3)c(CNCCO)cc2Br)cccc1-c1ccc2c(c1)OCCO2` [Example 1322, 5-((4-bromo-5-(3-(2,3-dihydrobenzo[b][1,4]dioxin-6-yl)-2-methylbenzyloxy)-2-((2-hydroxyethylamino)methyl)phenoxy)methyl)nicotinonitrile], the IC50 (value given as range class) was in the range of 0.6 to 10 nM.
Turning to `Cc1c(COc2cc(OCc3cncc(C#N)c3)c(CN3CCCC[C@@H]3C(=O)O)cc2Br)cccc1-c1ccc2c(c1)OCCO2` [Example 1323, (R)-1-(5-bromo-2-((5-cyanopyridin-3-yl)methoxy)-4-(3-(2,3-dihydrobenzo[b][1,4]dioxin-6-yl)-2-methylbenzyloxy)benzyl)piperidine-2-carboxylic acid], the IC50 (value given as range class) is 0.6 to 10 nM.
With `Cc1c(C#N)cncc1COc1cc(OCc2cccc(-c3ccccc3)c2C)ccc1CN[C@H](CO)C(=O)O` [Example 1324, (R)-2-(2-((5-cyano-4-methylpyridin-3-yl)methoxy)-4-((2-methylbiphenyl-3-yl)methoxy)benzylamino)-3-hydroxypropanoic acid], the IC50 (value given as range class) is 10 to 100 nM.
The same measure, in the same setting: then `Cc1c(COc2ccc(CN[C@H](CO)C(=O)O)c(OCc3cccc(C(N)=O)c3)c2)cccc1-c1ccc2c(c1)OCCO2` [Example 1325, (R)-2-((2-((3-carbamoylbenzyl)oxy)-4-((3-(2,3-dihydrobenzo[b][1,4]dioxin-6-yl)-2-methylbenzyl)oxy)benzyl)amino)-3-hydroxypropanoic acid], with 10 to 100 nM; and `Cc1c(COc2ccc(CN[C@](C)(CO)C(=O)O)c(OCc3cccc(C(N)=O)c3)c2)cccc1-c1ccc2c(c1)OCCO2` [Example 1326, (R)-2-((2-((3-carbamoylbenzyl)oxy)-4-((3-(2,3-dihydrobenzo[b][1,4]dioxin-6-yl)-2-methylbenzyl)oxy)benzyl)amino)-3-hydroxy-2-methylpropanoic acid], with 0.6 to 10 nM.
Still for that read-out and setting: as for `Cc1c(COc2ccc(CN[C@H](CO)C(=O)O)c(OCc3cncc(C#N)c3)c2)cccc1-c1ccccc1` [Example 1327, (R)-2-((2-((5-cyanopyridin-3-yl)methoxy)-4-((2-methyl-[1,1′-biphenyl]-3-yl)methoxy)benzyl)amino)-3-hydroxypropanoic acid], the figure is 0.6 to 10 nM; as for `Cc1c(COc2ccc(CNC[C@@H](O)CC(=O)O)c(OCc3cncc(C#N)c3)c2)cccc1-c1ccccc1` [Example 1328, (S)-4-((2-((5-cyanopyridin-3-yl)methoxy)-4-((2-methyl-[1,1′-biphenyl]-3-yl)methoxy)benzyl)amino)-3-hydroxybutanoic acid], 0.6 to 10 nM; as for `Cc1c(COc2ccc(CN3CCCC[C@H]3C(=O)O)c(OCc3cncc(C#N)c3)c2)cccc1-c1ccccc1` [Example 1329, (S)-1-(2-((5-cyanopyridin-3-yl)methoxy)-4-((2-methyl-[1,1′-biphenyl]-3-yl)methoxy)benzyl)piperidine-2-carboxylic acid], 0.6 to 10 nM.
On the same count and under the same terms, then `Cc1c(COc2ccc(CNC[C@@H](O)CC(=O)O)c(OCc3ccc(F)c(C#N)c3)c2)cccc1-c1ccccc1` [Example 1331, (S)-4-((2-((3-cyano-4-fluorobenzyl)oxy)-4-((2-methyl-[1,1′-biphenyl]-3-yl)methoxy)benzyl)amino)-3-hydroxybutanoic acid], with 0.6 to 10 nM.
